Measured values reported in patent US9200171B2, “AZO compound and ink containing the compound” (MITSUBISHI CHEMICAL CORPORATION, priority 2011, dated 2015).
≈ marks a conversion by molar mass, not a printed value.

Columns and labels:
Type in all cases: physicochemical
[1] = Absorption-maximum wavelength λmax, molar extinction coefficient ε and solution colour in each solvent; conditions: for ε: at absorption-maximum wavelength
Procedure: Each of the compounds 1 to 15 and the comparative example compounds 1 and 2 (1 mg each) was dissolved in each solvent (100 ml) and measurement of absorption spectra was performed on Hitachi spectrophotometer U-4100 using a quartz cell having an optical path length for measurement of 10 mm. From the resulting spectra, absorption-maximum wavelength λmax (nm) and molar extinction coefficient ε ([…]) were determined.

[2] = Solubility C (saturated concentration at 5° C.) of compound in low-polarity solvent and product εC; conditions: for ε · C: C at 5° C.; for solubility at 24 h: organic solvent or mixture, thermodynamic from solid; for solubility at 24 h / Solubility: at 5° C.
Procedure: The solubility C of each compound in each solvent was measured as follows.
Each compound was added to each solvent until a dissolution residue came to remain, and the mixture was subjected to an ultrasonic treatment for 30 minutes at 30° C. After the mixture was allowed to stand at 5° C. for 24 hours, centrifugal filtration was performed through a filter of 0.1 μm using a microcentrifuge (centrifugal force 5200×g). The resulting saturated solution was diluted to an appropriate concentration, and measurement of absorption spectra was performed on Hitachi spectrophotometer U-4100 using a quartz cell having an optical path length for measurement of 10 mm. The concentration of each compound was determined from a relationship between the absorbance at the absorption-maximum wavelength λmax (nm) and the molar extinction coefficient ε (L·mol^−1·cm^−1) previously measured, and the solubility C (mol·L^−1) was calculated. Moreover, the value of the product of the molar extinction coefficient ε (L·mol^−1·cm^−1) and the solubility C (mol·L^−1), εC, was determined.
Sudan Black B (manufactured by Tokyo Chemical Industry Co., Ltd.) that is a commercially available oil-soluble black dye was added to n-decane (relative permittivity 2.0, solubility in water 1 mg/L or less) until a dissolution residue came to remain, and the mixture was subjected to an ultrasonic treatment for 30 minutes at 30° C. After the mixture was allowed to stand at 5° C. for 24 hours, centrifugal filtration was performed through a filter of 0.1 μm using a microcentrifuge (centrifugal force 5200×g). The resulting saturated n-decane solution was diluted to an appropriate concentration.

[3] = Relative permittivity of solvent (impedance meter method, 1 kHz, 22° C.); conditions: frequency 1 kHz
Excerpt: In the case where the solvent is used as a mixture, when the interaction between the solvents is small as in the invention, the relative permittivity of the mixed solvent can be approximated by multiplying relative permittivity of each solvent constituting the mixed solvent by each volume fraction and summing respective products. Moreover, when the interaction between the solvents is similarly small, solubility of the mixed solvent in water can be approximated by a value obtained by multiplying solubility of each solvent constituting the mixed solvent in water by each molar fraction and summing respective products.
Thereafter, the equivalent parallel capacity was measured while applying a test signal voltage of 0.1 V at a frequency of 1 kHz at 22° C. The relative permittivity was determined through the calculation according to the following equation to evaluate the solvent or ink. Relative permittivity=(equivalent parallel capacity)×(electrode spacing)/(electrode area)/(permittivity in vacuum (ε0)) <Method for Measuring Solubility of Solvent in Water>

[4] = Solubility of solvent in water at 25° C.; conditions: pure water, thermodynamic from solid, single solvent
Procedure: Pure water (30 g) and a solvent (8 g) were introduced into 110 ml of a vial, which was shaken 200 times/minute for 4 hours in a constant-temperature tank at 25° C. The mixture after shaking was centrifuged (6000×g, for 5 minutes), the aqueous layer was sampled, and the concentration of the solvent dissolved was quantitatively determined by gas chromatography. Since Isopar was not a single compound but a mixture, the quantitative determination was performed as TOC (total organic carbon), which was converted into solubility according to the following equation, the average molecular weight being shown as Mw. Solubility [mg/L]=TOC [mg/L]×(14Mw/{12(Mw−2)}
In the case of a mixed solvent in which two or more kinds of solvents were mixed, the solubility in water was determined by multiplying the solubility of each solvent in water by each molar fraction and summing up the resulting products.
In the case where the solvent species used is unclear, the solubility in water can be measured by the above method through identification of the solvent species by mass spectroscopy or the like.

| Molecule | Absorption-maximum wavelength ([1]; n-decane) [nm] | Color tone ([1]; n-decane solution) | ε ([1]; n-decane) [L/mol/cm] | ε · C ([2]; n-decane) [cm⁻¹] | solubility at 24 h ([2]; in n-decane) [mM] | Absorption-maximum wavelength ([1]; Isopar M) [nm] | Color tone ([1]; Isopar M solution) | ε ([1]; Isopar M) [L/mol/cm] | Absorption-maximum wavelength ([1]; tetradecane) [nm] | Color tone ([1]; tetradecane solution) | ε ([1]; tetradecane) [L/mol/cm] | ε · C ([2]; Isopar M) [cm⁻¹] | Solubility ([2]; in Isopar M) [mM] | Solubility ([2]; in n-decane) [mM] | Solubility ([2]; in tetradecane) [mM] | ε · C ([2]; tetradecane) [cm⁻¹] | solubility at 24 h ([2]; in Isopar M) [mM] | solubility at 24 h ([2]; in tetradecane) [mM] | relative permittivity [3] | solubility at 4 h [4] [µg/mL] |
| --- | --- | --- | --- | --- | --- | --- | --- | --- | --- | --- | --- | --- | --- | --- | --- | --- | --- | --- | --- | --- |
| CCCCCc1ccc(N=Nc2cc(C#N)c(/N=N/c3cc(OC)c(N(CC(CC)CCCC)CC(CC)CCCC)cc3NC(C)=O)s2)cc1 (centres unmarked) [Compound 5] | 667 | blue | 75000 | 16000 | 220 (≈ 157 mg/mL) | – | – | – | – | – | – | – | – | – | – | – | – | – | – | – |
| CCCCC(CC)COC(=O)c1ccc(N=Nc2cc(C#N)c(N=Nc3ccc(N(CC(CC)CCCC)CC(CC)CCCC)cc3C)s2)cc1 (centres unmarked) [Compound 6] | 633 | blue | 66000 | 7000 | – | 634 | blue | 65000 | 635 | blue | 65000 | 10400 | 160 (≈ 116 mg/mL) | 110 (≈ 80 mg/mL) | 140 (≈ 102 mg/mL) | 9300 | – | – | – | – |
| CCCCc1ccc(N=Nc2cc(C#N)c(N=Nc3cc(OC)c(N(CC(CC)CCCC)CC(CC)CCCC)cc3C)s2)cc1 (centres unmarked) [Compound 7] | 640 | blue | 50000 | 6900 | – | – | – | – | – | – | – | – | – | 140 (≈ 92 mg/mL) | – | – | – | – | – | – |
| CCCCC(CC)COC(=O)c1ccc(N=Nc2cc(C#N)c(N=Nc3ccc(N(CC(CC)CCCC)CC(CC)CCCC)cc3NC(C)=O)s2)cc1 (centres unmarked) [Compound 8] | 637 | blue | 79000 | 4700 | – | 638 | blue | 78000 | 639 | blue | 79000 | 3400 | 44 (≈ 33.9 mg/mL) | 59 (≈ 45.4 mg/mL) | 44 (≈ 33.9 mg/mL) | 3500 | – | – | – | – |
| CCCCC(CC)CN(CC(CC)CCCC)c1cc(NC(C)=O)c(/N=N/c2nc(Cl)c(C=O)s2)cc1OC (centres unmarked) [Compound 9] | 617 | blue | 57000 | 3300 | 58 (≈ 33.5 mg/mL) | 618 | blue | 59000 | 618 | blue | 59000 | 2000 | – | – | – | 3300 | 34 (≈ 19.7 mg/mL) | 34 (≈ 19.7 mg/mL) | – | – |
| CCCCC(CC)COC(=O)C(C#N)=Cc1sc(N=Nc2cc(OC)c(N(CC(CC)CCCC)CC(CC)CCCC)cc2NC(C)=O)nc1Cl (centres unmarked) [Compound 10] | 656 | blue | 61000 | 5700 | – | 657 | blue | 54000 | 658 | blue | 55000 | 5500 | 64 (≈ 48.5 mg/mL) | 93 (≈ 70.4 mg/mL) | 36 (≈ 27.3 mg/mL) | 2000 | – | – | – | – |
| CCCCC(CC)CN(CC(CC)CCCC)c1ccc(N=Nc2sc(C=C(C#N)C#N)c(Cl)c2C#N)c(NC(=O)C(CC)CCCC)c1 (centres unmarked) [Compound 11] | 642 | blue | 60000 | 5300 | – | – | – | – | – | – | – | – | – | 89 (≈ 62.7 mg/mL) | – | – | – | – | – | – |
| CCCCC(CC)CN(CC(CC)CCCC)c1cc(NC(C)=O)c(N=Nc2sc(C(=O)OCC)c(C)c2C(=O)OCC)cc1OC (centres unmarked) [Compound 12] | 582 | blue | 46000 | 12000 | – | – | – | – | – | – | – | – | – | 250 (≈ 168 mg/mL) | – | – | – | – | – | – |
| CCCCc1ccc(N=Nc2cc(C#N)c(N=Nc3cc(OC)c(N(CC(CC)CCCC)CC(CC)CCCC)cc3NC(=O)CC)s2)cc1 (centres unmarked) [Compound 13] | 667 | blue | 76000 | 4400 | – | – | – | – | – | – | – | – | – | 59 (≈ 42.1 mg/mL) | – | – | – | – | – | – |
| CCCCOc1ccc(N=Nc2sc(N=Nc3ccc(N(CC(CC)CCCC)CC(CC)CCCC)cc3Cl)nc2C)cc1 (centres unmarked) [Compound 14] | 546 | red | 47000 | 7100 | – | – | – | – | – | – | – | – | – | 150 (≈ 98 mg/mL) | – | – | – | – | – | – |
| CCCCc1ccc(N=Nc2cc(C#N)c(/N=N/c3ccc(N(CC(CC)CCCC)CC(CC)CCCC)cc3C)s2)cc1 (centres unmarked) [Compound 15] | 613 | blue | 64000 | 1700 | 27 (≈ 16.9 mg/mL) | – | – | – | – | – | – | – | – | – | – | – | – | – | – | – |
| CCCCCCCCCC [n-decane] | – | – | – | – | – | – | – | – | – | – | – | – | – | – | – | – | – | – | 2.0 | ≤ 1 |
| n-decaline | – | – | – | – | – | – | – | – | – | – | – | – | – | – | – | – | – | – | 2.0 | – |
